Measured values published in patent US5773464A, “C-10 epoxy taxanes” (Bristol-Myers Squibb Company, priority 1997, dated 1998).
Read-outs that look alike come from different tables or passages of the source.

System: HCT-116 human colon carcinoma cells
Test: Cytotoxicity assay (MTS), 72 hour exposure
Assay type: cell-based
Details: HCT-116, 72 h, read-out: Cytotoxicity Assay IC50 (nM) against HCT 116 Human colon tumor cell line
Protocol: Cytoxicity was assessed in HCT-116 human colon carcinoma cells by MTS (3-(4,5-dimethylthiazol-2-yl)-5-(3-carboxymethoxyphenyl)-2-(4-sulphenyl)-2H-tetrazolium, inner salt) assay as reported in T. L. Riss, et. al., "Comparison of MTT, XTT, and a novel tetrazolium compound MTS for in vitro proliferation and chemosensitivity assays.," Mol. Biol. Cell 3 (Suppl.):184a, 1992. Cells were plated at 4,000 cell/well in 96 well microtiter plates and 24 hours later drugs were added and serial diluted. The cells were incubated at 37° form 72 hours at which time the tetrazolium dye, MTS at 333 μg/ml (final concentration), in combination with the electron coupling agent phenazine methosulfate at 25 μM (final concentration) was added. A dehydrogenase enzyme in live cells reduces the MTS to a form that absorbs light at […] which can be quantitated spectrophotometrically. The greater the absorbance the greater the number of live cells. The results are expressed as an IC50, which is the drug concentration required to inhibit cell proliferation (i.e. absorbance at 450 nm) to 50% of that of untreated control cells. The IC50 values for compounds evaluated in this assay are evaluated in Table I.
^1 Cytoxicity was determined after a 72 hour exposure by MTS assay.

[1] = 72 hour exposure, MTS assay, test comparing Ie with paclitaxel, run on a different day

Row | SMILES | IC50 [nM] | IC50 [1] [nM] | IC50 (72 hour exposure, MTS assay, test comparing Ia with paclitaxel) [nM]
1 | CC(=O)O[C@@]12CO[C@@H]1C[C@H](O)[C@@]1(C)C(=O)C3(CO3)C3=C(C)[C@@H](OC(=O)[C@H](O)[C@@H](NC(=O)c4ccccc4)c4ccccc4)C[C@@](O)([C@@H](OC(=O)c4ccccc4)[C@H]21)C3(C)C (stereo partly shown) [Compound Ia] | 2 |  | 
2 | COCO[C@H]1C[C@H]2OC[C@@]2(OC(C)=O)[C@H]2[C@H](OC(=O)c3ccccc3)[C@]3(O)C[C@H](OC(=O)[C@H](O)[C@@H](NC(=O)c4ccccc4)c4ccccc4)C(C)=C(C4(CO4)C(=O)[C@]12C)C3(C)C (stereo partly shown) [Compound Ie] |  | 1.5 | 
3 | CC(=O)O[C@H]1C(=O)[C@@]2(C)[C@H]([C@H](OC(=O)c3ccccc3)[C@]3(O)C[C@H](OC(=O)[C@H](O)[C@@H](NC(=O)c4ccccc4)c4ccccc4)C(C)=C1C3(C)C)[C@]1(OC(C)=O)CO[C@@H]1C[C@@H]2O [paclitaxel] |  | 1 | 2.9
